Experimental data reported in patent US8143374B2, “Polypeptide derivatives of parathyroid hormone (PTH)” (The General Hospital Corporation, priority 2006, dated 2012).
Entries after “also recorded” stand apart in the source; their conditions may differ. Where no end group is shown, it is not given here.

Assays:
[1] = target: T1, wild-type human PTHR (Homo sapiens, UniProt Q03431); experiment: Competition binding in intact HKRK-B7 cells with 125I-PTH(1-34) tracer; settings: for enhancement in apparent PTHR-binding affinity relative to parent peptide / detectable binding to the intact PTHR (in words) / reduction (alteration) of apparent binding affinity for the intact PTHR relative to parent peptide: HKRK-B7 cells; for enhancement in apparent PTHR-binding affinity relative to parent peptide: versus PTH(1-31)NH2; for IC50: hPTH(1-31)NH2 analogs, intact HKRK-B7 cells, 125I-[Nle8,21,Tyr34]ratPTH(1-34)NH2 tracer, read-out: PTHR-WT (HKRK-B7 cells) IC50; for reduction (alteration) of apparent binding affinity for the intact PTHR relative to parent peptide: versus the respective parent peptide
T1 construct: expressed in transfected cells
T1 sequence (Q03431 27-593): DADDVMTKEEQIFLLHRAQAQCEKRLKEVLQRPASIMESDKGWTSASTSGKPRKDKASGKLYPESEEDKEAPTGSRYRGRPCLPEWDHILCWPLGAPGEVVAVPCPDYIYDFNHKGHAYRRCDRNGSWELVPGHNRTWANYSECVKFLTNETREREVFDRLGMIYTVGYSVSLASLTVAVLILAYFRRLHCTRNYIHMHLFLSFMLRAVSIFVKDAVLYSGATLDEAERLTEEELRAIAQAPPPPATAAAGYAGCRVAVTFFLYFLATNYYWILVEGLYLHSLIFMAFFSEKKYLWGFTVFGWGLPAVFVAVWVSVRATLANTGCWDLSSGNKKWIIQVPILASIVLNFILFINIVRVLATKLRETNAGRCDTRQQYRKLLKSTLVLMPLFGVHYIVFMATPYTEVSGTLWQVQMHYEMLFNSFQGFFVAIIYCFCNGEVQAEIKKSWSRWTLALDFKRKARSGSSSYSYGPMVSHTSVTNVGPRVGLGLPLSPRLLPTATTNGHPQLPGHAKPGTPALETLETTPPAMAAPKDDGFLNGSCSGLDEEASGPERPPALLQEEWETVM
Protocol: Cell Culture—Cells were cultured at 37° C. in a humidified atmosphere containing 5% CO2 in Dulbecco's modified Eagle's medium (DMEM), supplemented with 10% fetal bovine serum (HyClone, Logan Utah), 100 units/ml penicillin G, and 100 ug/ml streptomycin penicillin G/streptomycin (Invitrogen Corp. Carlsbad, Calif.). For binding and cAMP studies performed with the intact PTHR, the HKRK-B7 and ROS 17/2.8 cell lines were used. HKRK-B7 cells are derived from the porcine kidney cell line LLC-PK1 and express, via stable DNA transfection, the wild-type human PTHR at an approximate surface density of 950,000 PTH-binding sites per cell. ROS 17/2.8 cells are rat osteosarcoma cells and express the endogenous PTHR at an approximate surface density of 80,000 PTH-binding sites per cell. The cells were plated and assayed in 24-well plates.
Receptor binding—Binding to the wild-type human PTHR in intact HKRK-B7 cells and ROS 17/2.8 cells was assessed using ^125I-PTH(1-34) as a tracer radioligand, as described (Shimizu, M., (2001) Endocrinology 142:3068-3074). In brief, the cells in 24-well plates (about 500,000 cells per well) were incubated in binding buffer containing radioligand (about 100,000 cpm per well) with or without unlabeled peptide ligand (3×10^−9 to 1×10^−5 M) for four hours at 15° C. The binding mixture was then removed by aspiration, the cells were rinsed three times with binding buffer, lysed in 1 M NaOH, and the entire lysate was counted for gamma-irradiation in a gamma counter. Binding to PTHR-delNt in COS-7 cell membranes was assessed in 96-well, vacuum filtration plates (Multiscreen-Durapore HV, […] membranes, Millipore Corp., Millford, Mass.) using ^125I-[Aib^1,3,M]PTH(1-15)NH2 as a tracer radioligand, as described (Dean, T., (2006) Mol Endocrinol 20:931-942). In brief, cell membranes (20 μg/well) were incubated in membrane binding buffer containing radioligand (30,000 cpm/well) with or without unlabeled peptide ligand (3×10^−9 to 1×10^−5 M) for 90 minutes at 21° C. The plates were then subject to rapid vacuum filtration, the filters were washed once with buffer, detached from the plate and counted for gamma-irradiation in a gamma counter. Non-specific binding was defined as the binding observed in the presence of 1×10^−6 M PTH(1-31)NH2 for HKRK-B7 and ROS 17/2.8 cells, and 1×10^−6 M [Aib^1,3,M]PTH(1-15)NH2 for PTHR-delNt. Specifically bound radioactivity was calculated as a percentage of the radioactivity specifically bound in the absence of competing ligand.
Data and statistical calculations—Data were processed for curve fitting and derivation of IC50 and EC50 values using least-squares, nonlinear regression analysis and the four parameter logistic equation: […], where y, ymin and ymax are the observed, minimum and maximum response values, respectively; x is ligand concentration, and n is the slope factor. In cases where incomplete inhibition of binding occurred: i.e. with certain PTH(1-31) analogs binding to PTHR-delNt, the curve fits and IC50 values were derived by extrapolating the data to the maximum inhibition attained by [Aib^1,3,M]PTH(1-15)NH2. Paired data sets were statistically compared using a two-tailed Student's t-test, assuming unequal variances for the two sets.

[2] = Circular dichroism spectroscopy, helical residues per peptide chain; type: physicochemical; settings: calculated from [θ]222
Method in brief: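 CD spectra recorded at 20 °C, four scans averaged; peptide concentration checked by A280 with the single-Trp extinction coefficient of 5700 M^−1. Helical residues per chain calculated as −[θ]222×30/28,000 from mean residue ellipticity at 222 nm.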

enhancement in apparent PTHR-binding affinity relative to parent peptide [1] | IC50 [1] | CD helical residues ([2]; hPTH(1-31)NH2 analogs) | CD helical residues ([2]; [Ala1,Arg19]hPTH(1-31)NH2 analogs) | reduction (alteration) of apparent binding affinity for the intact PTHR relative to parent peptide [1] | Substance | detectable binding to the intact PTHR (in words) [1]
≦two-fold | 0.049 ± 0.011 µM | 9 | – | – | SVSEIQLMHNLGKHLNSMARVEWLRKKLQDV-NH2 [Glu^19→Ala] | –
– | > 10 µM | 10 | – | – | SVSEIQLMHNLGKHLNSMEAVEWLRKKLQDV-NH2 [Arg^20→Ala] | abolished detectable binding altogether; also recorded: abolished binding to the PTHR
– | – | 7 | 8 | – | SVSEIQLMHNLGKHLNSMEEVEWLRKKLQDV [Arg^20→Glu] | abolished detectable binding; also recorded: complete loss of detectable binding affinity
– | > 10 µM | 8 | – | – | SVSEIQLMHNLGKHLNSMEKVEWLRKKLQDV-NH2 [Arg^20→Lys] | complete loss of detectable binding affinity
– | > 10 µM | 7 | – | – | SVSEIQLMHNLGKHLNSMEQVEWLRKKLQDV-NH2 [Arg^20→Gln] | complete loss of detectable binding affinity
– | – | 10 | – | three- to four-fold | SVSEIQLMHNLGKHLNSMERAEWLRKKLQDV-NH2 [Val^21→Ala] | –
≦two-fold | – | 9 | – | – | SVSEIQLMHNLGKHLNSMERVAWLRKKLQDV-NH2 [Glu^22→Ala] | –
– | – | 7 | – | 19 fold | SVSEIQLMHNLGKHLNSMERVEALRKKLQDV-NH2 [Trp^23→Ala] | –
– | – | 7 | – | 12 fold | SVSEIQLMHNLGKHLNSMERVEWARKKLQDV-NH2 [Leu^24→Ala] | –
– | – | 7 | – | three- to four-fold | SVSEIQLMHNLGKHLNSMERVEWLAKKLQDV-NH2 [Arg^25→Ala] | –
– | 0.125 ± 0.008 µM | 7 | – | – | SVSEIQLMHNLGKHLNSMERVEWLRAKLQDV-NH2 [Lys^26→Ala] | –
– | – | 9 | – | three- to four-fold | SVSEIQLMHNLGKHLNSMERVEWLRKALQDV-NH2 [Lys^27→Ala] | –
– | – | 8 | – | three- to four-fold | SVSEIQLMHNLGKHLNSMERVEWLRKKAQDV-NH2 [Leu^28→Ala] | –
≦two-fold | – | 9 | – | – | SVSEIQLMHNLGKHLNSMERVEWLRKKLADV-NH2 [Gln^29→Ala] | –
– | – | 9 | – | three- to four-fold | SVSEIQLMHNLGKHLNSMERVEWLRKKLQDA-NH2 [Val^31→Ala] | –
did not lead to further improvements | 0.054 ± 0.013 µM | 8 | – | – | SVSEIQLMHNLGKHLNSMRRVAWLRKKLQDV-NH2 [Glu^19,22→Arg,Ala] | –
≦two-fold | – | 8 | – | – | SVSEIQLMHNLGKHLNSMRRVEWLRKKLQDV-NH2 [Glu^19→Arg] | –
